Test results: patent publication US9615576B2, “Pesticidal compositions and processes related thereto” (Dow AgroSciences LLC, priority 2011, dated 2017)

Experiments:
[1] = tested on: Beet Armyworm (BAW) (Spodoptera exigua); test: Bioassays on Beet Armyworm (BAW), 128-well diet tray assay; format: in vivo; conditions: 168 h, 50 μg/cm^2 test compound on artificial diet, second instar larvae, 25° C., five to seven days, average of eight wells, read-out: BAW Rating (% mortality)
Protocol: (§1) Certain molecules disclosed in this document were tested against BAW and CEW using procedures described in the following examples. In the reporting of the results, the “BAW & CEW Rating Table” was used (See Table Section).
Bioassays on BAW (Spodoptera exigua)
Bioassays on BAW were conducted using a 128-well diet tray assay. one to five second instar BAW larvae were placed in each well (3 mL) of the diet tray that had been previously filled with 1 mL of artificial diet to which 50 μg/cm^2 of the test compound (dissolved in 50 μL of 90:10 acetone-water mixture) had been applied (to each of eight wells) and then allowed to dry. Trays were covered with a clear self-adhesive cover, and held at 25° C., 14:10 light-dark for five to seven days. Percent mortality was recorded for the larvae in each well; activity in the eight wells was then averaged. The results are indicated in the table entitled “Table 3: Assay Results” (See Table Section).

[2] = tested on: Corn Earworm (CEW) (Helicoverpa zea); test: Bioassays on Corn Earworm (CEW), 128-well diet tray assay; format: in vivo; conditions: 168 h, 50 μg/cm^2 test compound on artificial diet, second instar larvae, 25° C., five to seven days, average of eight wells, read-out: CEW Rating (% mortality)
Protocol: as §1
Bioassays on CEW (Helicoverpa zea)
Bioassays on CEW were conducted using a 128-well diet tray assay. one to five second instar CEW larvae were placed in each well (3 mL) of the diet tray that had been previously filled with 1 mL of artificial diet to which 50 μg/cm^2 of the test compound (dissolved in 50 μL of 90:10 acetone-water mixture) had been applied (to each of eight wells) and then allowed to dry. Trays were covered with a clear self-adhesive cover, and held at 25° C., 14:10 light-dark for five to seven days. Percent mortality was recorded for the larvae in each well; activity in the eight wells was then averaged. The results are indicated in the table entitled “Table 3: Assay Results” (See Table Section).

SMILES: Cc1cc(/C=C/C(c2cc(Cl)c(F)c(Cl)c2)C(F)(F)F)ccc1C(=O)NCc1ccc(Cl)cn1 (centres unmarked) [AC53]
- mortality at 50 µg/cm2 [1]: 50 to 100%
- mortality at 50 µg/cm2 [2]: 50 to 100%

SMILES: Cc1cc(/C=C/C(c2cc(Cl)c(F)c(Cl)c2)C(F)(F)F)ccc1C(=O)NCc1ccnc(Cl)c1 (centres unmarked) [AC54]
- mortality at 50 µg/cm2 [1]: 50 to 100%
- mortality at 50 µg/cm2 [2]: 50 to 100%

SMILES: O=C(CNC(=O)c1ccc(/C=C/C(c2cc(Cl)cc(Cl)c2)C(F)(F)F)cc1Cl)NCC(F)(F)F (centres unmarked) [AC57]
- mortality at 50 µg/cm2 [1]: 50 to 100%
- mortality at 50 µg/cm2 [2]: 50 to 100%

SMILES: CC(C)(C)OC(=O)CNC(=O)c1ccc(/C=C/C(c2cc(Cl)c(Cl)c(Cl)c2)C(F)(F)F)cc1Br (centres unmarked) [AC58]
- mortality at 50 µg/cm2 [1]: 50 to 100%
- mortality at 50 µg/cm2 [2]: 50 to 100%

SMILES: Cc1cc(/C=C/C(c2cc(Cl)cc(Cl)c2)C(F)(F)F)ccc1C(=O)Nc1ccc(Cl)nc1 (centres unmarked) [AC59]
- mortality at 50 µg/cm2 [1]: 50 to 100%
- mortality at 50 µg/cm2 [2]: 50 to 100%

SMILES: Cc1cc(/C=C/C(c2cc(Cl)cc(Cl)c2)C(F)(F)F)cnc1C(=O)NCc1ccc(Cl)nc1 (centres unmarked) [AC60]
- mortality at 50 µg/cm2 [1]: 50 to 100%
- mortality at 50 µg/cm2 [2]: 50 to 100%

SMILES: O=C(NC1CSC1)c1ccc(/C=C/C(c2cc(Cl)cc(Cl)c2)C(F)(F)F)cc1F (centres unmarked) [AC61]
- mortality at 50 µg/cm2 [1]: 50 to 100%
- mortality at 50 µg/cm2 [2]: 50 to 100%

SMILES: O=C(CNC(=O)c1ccc(/C=C/C(c2cc(Cl)cc(Cl)c2)C(F)(F)F)cc1F)NCC(F)(F)F (centres unmarked) [AC62]
- mortality at 50 µg/cm2 [1]: 50 to 100%
- mortality at 50 µg/cm2 [2]: 50 to 100%

SMILES: O=C(NCc1ccc(Cl)nc1)c1ccc(/C=C/C(c2cc(Cl)c(F)c(Cl)c2)C(F)(F)F)cc1Br (centres unmarked) [AC63]
- mortality at 50 µg/cm2 [1]: 50 to 100%
- mortality at 50 µg/cm2 [2]: 50 to 100%

SMILES: O=C(CNC(=O)c1ccc(/C=C/C(c2cc(Cl)c(Cl)c(Cl)c2)C(F)(F)F)cc1Cl)NCC(F)(F)F (centres unmarked) [AC64, (E)-2-chloro-N-(2-oxo-2-((2,2,2-trifluoroethyl)amino)ethyl)-4-(4,4,4-trifluoro-3-(3,4,5-trichlorophenyl)but-1-en-1-yl)benzamide]
- mortality at 50 µg/cm2 [1]: 50 to 100%
- mortality at 50 µg/cm2 [2]: 50 to 100%

SMILES: O=C(NCc1ccc(Cl)nc1)c1ccc(/C=C/C(c2cc(Cl)c(F)c(Cl)c2)C(F)(F)F)cc1F (centres unmarked) [AC65]
- mortality at 50 µg/cm2 [1]: 50 to 100%
- mortality at 50 µg/cm2 [2]: 50 to 100%

SMILES: O=C(CNC(=O)c1ccc(/C=C/C(c2cc(Cl)c(Cl)c(Cl)c2)C(F)(F)F)cc1Br)NCC(F)(F)F (centres unmarked) [AC66]
- mortality at 50 µg/cm2 [1]: 50 to 100%
- mortality at 50 µg/cm2 [2]: 50 to 100%

SMILES: O=C(NC1CSC1)c1ccc(/C=C/C(c2cc(Cl)c(F)c(Cl)c2)C(F)(F)F)cc1F (centres unmarked) [AC67]
- mortality at 50 µg/cm2 [1]: 50 to 100%
- mortality at 50 µg/cm2 [2]: 50 to 100%

SMILES: O=C(CNC(=O)c1ccc(/C=C/C(c2cc(Cl)c(F)c(Cl)c2)C(F)(F)F)cc1F)NCC(F)(F)F (centres unmarked) [AC68]
- mortality at 50 µg/cm2 [1]: 50 to 100%
- mortality at 50 µg/cm2 [2]: 50 to 100%

SMILES: Cc1cc(/C=C/C(c2cc(Cl)c(F)c(Cl)c2)C(F)(F)F)ccc1C(=O)NCC(=O)NCC(F)(F)F (centres unmarked) [AC69]
- mortality at 50 µg/cm2 [1]: 50 to 100%
- mortality at 50 µg/cm2 [2]: 50 to 100%

SMILES: COc1cc(/C=C/C(c2cc(Cl)c(F)c(Cl)c2)C(F)(F)F)ccc1C(=O)NCc1ccc(Cl)nc1 (centres unmarked) [AC70]
- mortality at 50 µg/cm2 [1]: 0%
- mortality at 50 µg/cm2 [2]: 0%

SMILES: COc1cc(/C=C/C(c2cc(Cl)c(F)c(Cl)c2)C(F)(F)F)ccc1C(=O)NC1CSC1 (centres unmarked) [AC71]
- mortality at 50 µg/cm2 [1]: 50 to 100%
- mortality at 50 µg/cm2 [2]: 50 to 100%

SMILES: CCc1cc(/C=C/C(c2cc(Cl)c(F)c(Cl)c2)C(F)(F)F)ccc1C(=O)NCc1ccc(Cl)nc1 (centres unmarked) [AC72]
- mortality at 50 µg/cm2 [1]: 50 to 100%
- mortality at 50 µg/cm2 [2]: 50 to 100%

SMILES: O=C(NCc1ccc(C(F)(F)F)nc1)c1ccc(/C=C/C(c2cc(Cl)c(Cl)c(Cl)c2)C(F)(F)F)cc1Br (centres unmarked) [AC75]
- mortality at 50 µg/cm2 [1]: 50 to 100%
- mortality at 50 µg/cm2 [2]: 50 to 100%

SMILES: CCc1cc(/C=C/C(c2cc(Cl)c(F)c(Cl)c2)C(F)(F)F)ccc1C(=O)NCc1cccnc1Cl (centres unmarked) [AC76]
- mortality at 50 µg/cm2 [1]: 50 to 100%
- mortality at 50 µg/cm2 [2]: 50 to 100%

SMILES: Cc1cc(/C=C/C(c2cc(Cl)c(F)c(Cl)c2)C(F)(F)F)ccc1C(=O)NCc1cc(Cl)ccn1 (centres unmarked) [AC77]
- mortality at 50 µg/cm2 [1]: 50 to 100%
- mortality at 50 µg/cm2 [2]: 50 to 100%

SMILES: Cc1cc(/C=C/C(c2cc(Cl)c(Cl)c(Cl)c2)C(F)(F)F)ccc1C(=O)NCC(=O)NCC(F)(F)F (centres unmarked) [AC78]
- mortality at 50 µg/cm2 [1]: 50 to 100%
- mortality at 50 µg/cm2 [2]: 50 to 100%

SMILES: O=C(CNC(=O)c1ccc(/C=C/C(c2cc(Cl)c(F)c(Cl)c2)C(F)(F)F)cc1Br)NCC(F)(F)F (centres unmarked) [AC79, (E)-2-bromo-4-(3-(3,5-dichloro-4-fluorophenyl)-4,4,4-trifluorobut-1-en-1-yl)-N-(2-oxo-2-((2,2,2-trifluoroethyl)amino)ethyl)benzamide]
- mortality at 50 µg/cm2 [1]: 50 to 100%
- mortality at 50 µg/cm2 [2]: 50 to 100%

SMILES: CCc1cc(/C=C/C(c2cc(Cl)c(F)c(Cl)c2)C(F)(F)F)ccc1C(=O)NCC(=O)NCC(F)(F)F (centres unmarked) [AC80]
- mortality at 50 µg/cm2 [1]: 50 to 100%
- mortality at 50 µg/cm2 [2]: 50 to 100%

SMILES: Cc1cc(/C=C/C(c2cc(Cl)cc(Cl)c2)C(F)(F)F)ccc1C(=O)NCC(=O)NC1CS(=O)(=O)C1 (centres unmarked) [AC81]
- mortality at 50 µg/cm2 [1]: 50 to 100%
- mortality at 50 µg/cm2 [2]: 0%

SMILES: Cc1cc(/C=C/C(c2cc(Cl)cc(Cl)c2)C(F)(F)F)ccc1C(=O)N[C@H]1C[S@@+]([O-])C1 (some centres unmarked) [AC82]
- mortality at 50 µg/cm2 [1]: 50 to 100%
- mortality at 50 µg/cm2 [2]: 50 to 100%

SMILES: O=C(NC1CS(=O)(=O)C1)c1ccc(/C=C/C(c2cc(Cl)cc(Cl)c2)C(F)(F)F)cc1F (centres unmarked) [AC83, (E)-4-(3-(3,5-dichlorophenyl)-4,4,4-trifluorobut-1-en-1-yl)-N-(1,1-dioxidothietan-3-yl)-2-fluorobenzamide]
- mortality at 50 µg/cm2 [1]: 50 to 100%
- mortality at 50 µg/cm2 [2]: 50 to 100%

SMILES: O=C(NC1CS(=O)(=O)C1)c1ccc(/C=C/C(c2cc(Cl)c(F)c(Cl)c2)C(F)(F)F)cc1F (centres unmarked) [AC84]
- mortality at 50 µg/cm2 [1]: 50 to 100%
- mortality at 50 µg/cm2 [2]: 50 to 100%

SMILES: COc1cc(/C=C/C(c2cc(Cl)c(F)c(Cl)c2)C(F)(F)F)ccc1C(=O)NC1CS(=O)(=O)C1 (centres unmarked) [AC85]
- mortality at 50 µg/cm2 [1]: 50 to 100%
- mortality at 50 µg/cm2 [2]: 50 to 100%

SMILES: CCc1cc(/C=C/C(c2cc(Cl)c(F)c(Cl)c2)C(F)(F)F)ccc1C(=O)NC1CS(=O)(=O)C1 (centres unmarked) [AC86]
- mortality at 50 µg/cm2 [1]: 50 to 100%
- mortality at 50 µg/cm2 [2]: 50 to 100%

SMILES: O=C(NC1C[S+]([O-])C1)c1ccc(/C=C/C(c2cc(Cl)c(F)c(Cl)c2)C(F)(F)F)cc1F (centres unmarked) [AC87]
- mortality at 50 µg/cm2 [1]: 50 to 100%
- mortality at 50 µg/cm2 [2]: 50 to 100%

SMILES: Cc1cc(/C=C/C(c2cc(Cl)cc(Cl)c2)C(F)(F)F)ccc1C(=O)NCc1nnc(C2CC2)o1 (centres unmarked) [AC89, (E)-N-((5-cyclopropyl-1,3,4-oxadiazol-2-yl)methyl)-4-(3-(3,5-dichlorophenyl)-4,4,4-trifluorobut-1-en-1-yl)-2-methylbenzamide]
- mortality at 50 µg/cm2 [1]: 50 to 100%
- mortality at 50 µg/cm2 [2]: 50 to 100%

SMILES: FC(F)(F)CNC(=S)CNC(=S)c1ccc(/C=C/C(c2cc(Cl)c(Cl)c(Cl)c2)C(F)(F)F)cc1Br (centres unmarked) [AC90, (E)-2-bromo-N-(2-thioxo-2-((2,2,2-trifluoroethyl)amino)ethyl)-4-(4,4,4-trifluoro-3-(3,4,5-trichlorophenyl)but-1-en-1-yl)benzothioamide]
- mortality at 50 µg/cm2 [1]: 50 to 100%
- mortality at 50 µg/cm2 [2]: 50 to 100%

SMILES: O=C(CNC(=S)c1ccc(/C=C/C(c2cc(Cl)c(Cl)c(Cl)c2)C(F)(F)F)cc1Br)NCC(F)(F)F (centres unmarked) [AC91, (E)-2-(2-bromo-4-(4,4,4-trifluoro-3-(3,4,5-trichlorophenyl)but-1-en-1-yl)phenylthioamido)-N-(2,2,2-trifluoroethyl)acetamide]
- mortality at 50 µg/cm2 [1]: 50 to 100%
- mortality at 50 µg/cm2 [2]: 50 to 100%
